Data reported in article PMC10455244, “Alpha-Mangostin: A Potent Inhibitor of TRPV3 and Pro-Inflammatory Cytokine Secretion in Keratinocytes” (International Journal of Molecular Sciences, 2023).

Target: T1, TRPV3 (G573C) (Homo sapiens, UniProt Q8NET8, G573C)
T1 construct: host or cells: HEK 293T (transient transfection, pEGFP-N1 co-transfected as a marker)
T1 sequence (Q8NET8 1-790 G573C): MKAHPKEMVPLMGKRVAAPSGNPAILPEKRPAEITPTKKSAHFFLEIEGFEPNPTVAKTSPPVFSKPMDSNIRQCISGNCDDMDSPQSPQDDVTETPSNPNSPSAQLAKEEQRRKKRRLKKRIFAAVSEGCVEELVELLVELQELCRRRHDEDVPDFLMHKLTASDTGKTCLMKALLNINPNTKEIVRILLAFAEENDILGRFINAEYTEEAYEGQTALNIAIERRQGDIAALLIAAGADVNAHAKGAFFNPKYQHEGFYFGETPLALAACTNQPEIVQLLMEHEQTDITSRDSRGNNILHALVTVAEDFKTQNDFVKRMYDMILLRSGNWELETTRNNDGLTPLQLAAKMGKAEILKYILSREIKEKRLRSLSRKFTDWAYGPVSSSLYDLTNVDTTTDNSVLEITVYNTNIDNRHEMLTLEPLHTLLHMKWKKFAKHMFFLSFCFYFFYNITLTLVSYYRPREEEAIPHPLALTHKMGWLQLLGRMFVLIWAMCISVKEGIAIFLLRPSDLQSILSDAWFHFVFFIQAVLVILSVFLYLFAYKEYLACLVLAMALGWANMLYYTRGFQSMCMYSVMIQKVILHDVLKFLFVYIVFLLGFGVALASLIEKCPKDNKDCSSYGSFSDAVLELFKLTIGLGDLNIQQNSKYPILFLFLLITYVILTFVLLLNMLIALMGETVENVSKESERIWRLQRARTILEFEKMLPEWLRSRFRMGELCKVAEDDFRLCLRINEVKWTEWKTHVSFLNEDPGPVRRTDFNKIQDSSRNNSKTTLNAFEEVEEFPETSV
Test: Whole-cell patch-clamp, spontaneous current of TRPV3 G573C mutant in HEK 293T cells
Format: cell-based
Conditions: −100 mV, read-out: IC50, inhibition of spontaneous current of TRPV3 G573C mutant
Method: For electrophysiology recording and calcium measurement, 10 µM 74a (a TRPV3 inhibitor) was added about 6 h after transfection to inhibit channel activities and prevent cell death. First, the electrophysiology activities of the mutations were recorded using a whole-cell patch-clamp. Our data presented spontaneous TRPV3 currents when −100 mV to 100 mV ramp pulses were applied, which dramatically declined with the addition of 1 µM alpha-mangostin (Figure 4A).
Figure 4 Alpha-mangostin inhibited the activity of hyperactive TRPV3 mutant channels and rescued mutation-induced cell death. (A) Alpha-mangostin inhibited the channel current in representative TRPV3 (G573S)- and TRPV3 (G573C)-expressing HEK 293T cells. […] Currents were normalized to the response at −100 mV before adding alpha-mangostin. (C) Alpha-mangostin inhibited TRPV3-mediated intracellular calcium increase in TRPV3 (G573S)-expressing HEK 293T cells. […] The bar graph on the right summarizes the change in the intracellular calcium rise inhibited by alpha-mangostin. […]
In the whole-cell configuration, voltage ramps from −100 to +100 mV over 1 s were applied every 20 s and the holding potential was set at 0 mV. Sampling at 10 kHz and low-pass filtering at 5 kHz (w-c) were applied for all recorded currents. Recorded data were analyzed using Clampfit ver. […]

With COc1c(O)cc2oc3cc(O)c(CC=C(C)C)c(O)c3c(=O)c2c1CC=C(C)C [Alpha-mangostin] as the molecule, how does the IC50 read?
Its IC50 is 1940 ± 400 nM.
